pIC50: −log10 of the molar value. Blank lines part the entries; values can stand above or below the compound they belong to.
Test system: LG0567-F671-PDC complex spheroids viability
Assay: Anticancer human tumor LG0567-F671-PDC patient-derived lung adenocarcinoma cell line growth inhibition [RAS]
Details: for viability, T/C: stronger effect = lower value; for pIC50: curve of first compound
How it was run: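 Agents were tested in combination matrices in half-log decrements from a top concentration at or near clinical Cmax (10 microM if undetermined). Targets were multi-cell spheroids of tumour lines plus HUVEC and MSC stromal cells.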

[1] = second compound 0.000949 µM, first compound 0.0316 µM
[2] = second compound 0.000949 µM, first compound 0.1 µM
[3] = second compound 0.000949 µM, first compound 0.316 µM
[4] = second compound 0.000949 µM, first compound 1 µM
[5] = second compound 0.000949 µM, first compound 3.16 µM
[6] = second compound 0.000949 µM, first compound 10 µM
[7] = second compound 0.003 µM, first compound 0.0316 µM
[8] = second compound 0.003 µM, first compound 0.1 µM
[9] = second compound 0.003 µM, first compound 0.316 µM
[10] = second compound 0.003 µM, first compound 1 µM
[11] = second compound 0.003 µM, first compound 3.16 µM
[12] = second compound 0.003 µM, first compound 10 µM
[13] = second compound 0.00949 µM, first compound 0.0316 µM
[14] = second compound 0.00949 µM, first compound 0.1 µM
[15] = second compound 0.00949 µM, first compound 0.316 µM
[16] = second compound 0.00949 µM, first compound 1 µM
[17] = second compound 0.00949 µM, first compound 3.16 µM
[18] = second compound 0.00949 µM, first compound 10 µM
[19] = second compound 0.03 µM, first compound 0.0316 µM
[20] = second compound 0.03 µM, first compound 0.1 µM
[21] = second compound 0.03 µM, first compound 0.316 µM
[22] = second compound 0.03 µM, first compound 1 µM
[23] = second compound 0.03 µM, first compound 3.16 µM
[24] = second compound 0.03 µM, first compound 10 µM
[25] = second compound 0.0949 µM, first compound 0.0316 µM
[26] = second compound 0.0949 µM, first compound 0.1 µM
[27] = second compound 0.0949 µM, first compound 0.316 µM
[28] = second compound 0.0949 µM, first compound 1 µM
[29] = second compound 0.0949 µM, first compound 3.16 µM
[30] = second compound 0.0949 µM, first compound 10 µM
[31] = second compound 0.3 µM, first compound 0.0316 µM
[32] = second compound 0.3 µM, first compound 0.1 µM
[33] = second compound 0.3 µM, first compound 0.316 µM
[34] = second compound 0.3 µM, first compound 1 µM
[35] = second compound 0.3 µM, first compound 3.16 µM
[36] = second compound 0.3 µM, first compound 10 µM
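Note: spheroids exposed to compound for seven days before readout.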
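Throughout, for pIC50: luminescence signal used as a proxy for viable cells.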

IC50 (curve of compound): 225 nM [middle of 4 runs]
SMILES: C=CC(=O)Nc1cc(Nc2nccc(-c3cn(C)c4ccccc34)n2)c(OC)cc1N(C)CCN(C)C
viability, T/C (compound 0.01 µM): 92.5% [middle of 4 runs] | viability, T/C (compound 0.0316 µM): 86% [middle of 4 runs] | viability, T/C (compound 0.1 µM): 68.7% [middle of 4 runs] | viability, T/C (compound 0.316 µM): 42.7% [middle of 4 runs] | viability, T/C (compound 1 µM): 23.2% [middle of 4 runs]

pIC50 (second compound 0.000949 µM): > 7.50 | pIC50 (second compound 0.003 µM): > 7.50 | pIC50 (second compound 0.00949 µM): > 7.50 | pIC50 (second compound 0.03 µM): > 7.50 | pIC50 (second compound 0.0949 µM): > 7.50 | pIC50 (second compound 0.3 µM): > 7.50
SMILES: CCC(CC)c1cc(NC2CCC(N)C2)n2nccc2n1 (configuration not stated) + CCn1c(-c2cccnc2C(C)OC)c2c3cc(ccc31)N1CCOC(CC(NC(=O)C(C(C)C)N(C)C(=O)C3(F)CCN(C(=O)C#CC(C)(C)N(C)C)CC3)C(=O)N3CCCC(N3)C(=O)OCC(C)(C)C2)C1
viability, T/C [1]: 21.2% | viability, T/C [2]: 16.6% | viability, T/C [3]: 13.3% | viability, T/C [4]: 13.9% | viability, T/C [5]: 4.31% | viability, T/C [6]: 0.82% | viability, T/C [7]: 14.1% | viability, T/C [8]: 16.1% | viability, T/C [9]: 14.6% | viability, T/C [10]: 13.5% | viability, T/C [11]: 4.44% | viability, T/C [12]: 0.75% | viability, T/C [13]: 13.7% | viability, T/C [14]: 15% | viability, T/C [15]: 13.3% | viability, T/C [16]: 14.2% | viability, T/C [17]: 3.48% | viability, T/C [18]: 0.89% | viability, T/C [19]: 13.2% | viability, T/C [20]: 13.2% | viability, T/C [21]: 11.8% | viability, T/C [22]: 12.3% | viability, T/C [23]: 3.67% | viability, T/C [24]: 0.88% | viability, T/C [25]: 10.6% | viability, T/C [26]: 12.2% | viability, T/C [27]: 10.4% | viability, T/C [28]: 12% | viability, T/C [29]: 4.19% | viability, T/C [30]: 1% | viability, T/C [31]: 8.88% | viability, T/C [32]: 7.92% | viability, T/C [33]: 8.86% | viability, T/C [34]: 9.25% | viability, T/C [35]: 3.79% | viability, T/C [36]: 0.7%

pIC50 (second compound 0.000949 µM): > 7.50 | pIC50 (second compound 0.003 µM): > 7.50 | pIC50 (second compound 0.00949 µM): > 7.50 | pIC50 (second compound 0.03 µM): > 7.50 | pIC50 (second compound 0.0949 µM): > 7.50 | pIC50 (second compound 0.3 µM): > 7.50
SMILES: CC(=O)OC12COC1CC(O)C1(C)C(=O)C(O)C3=C(C)C(OC(=O)C(O)C(NC(=O)OC(C)(C)C)c4ccccc4)CC(O)(C(OC(=O)c4ccccc4)C21)C3(C)C (configuration not stated) + CCn1c(-c2cccnc2C(C)OC)c2c3cc(ccc31)N1CCOC(CC(NC(=O)C(C(C)C)N(C)C(=O)C3(F)CCN(C(=O)C#CC(C)(C)N(C)C)CC3)C(=O)N3CCCC(N3)C(=O)OCC(C)(C)C2)C1
viability, T/C [1]: 12.9% | viability, T/C [2]: 10.5% | viability, T/C [3]: 11% | viability, T/C [4]: 11.9% | viability, T/C [5]: 11.6% | viability, T/C [6]: 8.54% | viability, T/C [7]: 13.3% | viability, T/C [8]: 11.5% | viability, T/C [9]: 11.2% | viability, T/C [10]: 11.5% | viability, T/C [11]: 11.5% | viability, T/C [12]: 9.41% | viability, T/C [13]: 11.1% | viability, T/C [14]: 10.2% | viability, T/C [15]: 12.1% | viability, T/C [16]: 10.1% | viability, T/C [17]: 11.2% | viability, T/C [18]: 8.58% | viability, T/C [19]: 10.2% | viability, T/C [20]: 10.9% | viability, T/C [21]: 10.7% | viability, T/C [22]: 9.38% | viability, T/C [23]: 10.1% | viability, T/C [24]: 7.46% | viability, T/C [25]: 8.76% | viability, T/C [26]: 7.61% | viability, T/C [27]: 8.1% | viability, T/C [28]: 9.57% | viability, T/C [29]: 8.69% | viability, T/C [30]: 6.64% | viability, T/C [31]: 7.24% | viability, T/C [32]: 6.04% | viability, T/C [33]: 6.63% | viability, T/C [34]: 6.97% | viability, T/C [35]: 7.51% | viability, T/C [36]: 5.29%

pIC50 (second compound 0.0316 µM): 8.36 | pIC50 (second compound 0.1 µM): > 9.02 | pIC50 (second compound 0.316 µM): > 9.02 | pIC50 (second compound 1 µM): > 9.02 | pIC50 (second compound 3.16 µM): > 9.02 | pIC50 (second compound 10 µM): > 9.02
SMILES: CC1(C)CCC(Nc2ncc(C(F)(F)F)c(-c3c[nH]c4c(P(C)(C)=O)c(C#N)ccc34)n2)CN1 (configuration not stated) + C#Cc1c(F)ccc2cc(O)cc(-c3ncc4c(N5CC6CCC(C5)N6)nc(OCC56CCCN5CC(F)C6)nc4c3F)c12
viability, T/C (second compound 0.0316 µM, first compound 0.000949 µM): 61.2% | viability, T/C (second compound 0.0316 µM, first compound 0.003 µM): 50.8% | viability, T/C (second compound 0.0316 µM, first compound 0.00949 µM): 48.4% | viability, T/C (second compound 0.0316 µM, first compound 0.03 µM): 45.5% | viability, T/C (second compound 0.0316 µM, first compound 0.0949 µM): 43.3% | viability, T/C (second compound 0.0316 µM, first compound 0.3 µM): 46% | viability, T/C (second compound 0.1 µM, first compound 0.000949 µM): 54.5% | viability, T/C (second compound 0.1 µM, first compound 0.003 µM): 45.1% | viability, T/C (second compound 0.1 µM, first compound 0.00949 µM): 42.7% | viability, T/C (second compound 0.1 µM, first compound 0.03 µM): 45.3% | viability, T/C (second compound 0.1 µM, first compound 0.0949 µM): 45.2% | viability, T/C (second compound 0.1 µM, first compound 0.3 µM): 44.4% | viability, T/C (second compound 0.316 µM, first compound 0.000949 µM): 40.9% | viability, T/C (second compound 0.316 µM, first compound 0.003 µM): 34.8% | viability, T/C (second compound 0.316 µM, first compound 0.00949 µM): 36% | viability, T/C (second compound 0.316 µM, first compound 0.03 µM): 32.6% | viability, T/C (second compound 0.316 µM, first compound 0.0949 µM): 34.1% | viability, T/C (second compound 0.316 µM, first compound 0.3 µM): 34.1% | viability, T/C (second compound 1 µM, first compound 0.000949 µM): 22.6% | viability, T/C (second compound 1 µM, first compound 0.003 µM): 21.8% | viability, T/C (second compound 1 µM, first compound 0.00949 µM): 23.2% | viability, T/C (second compound 1 µM, first compound 0.03 µM): 21.7% | viability, T/C (second compound 1 µM, first compound 0.0949 µM): 23% | viability, T/C (second compound 1 µM, first compound 0.3 µM): 25.2% | viability, T/C (second compound 3.16 µM, first compound 0.000949 µM): 15.2% | viability, T/C (second compound 3.16 µM, first compound 0.003 µM): 12.6% | viability, T/C (second compound 3.16 µM, first compound 0.00949 µM): 13.6% | viability, T/C (second compound 3.16 µM, first compound 0.03 µM): 15.4% | viability, T/C (second compound 3.16 µM, first compound 0.0949 µM): 16% | viability, T/C (second compound 3.16 µM, first compound 0.3 µM): 15.3% | viability, T/C (second compound 10 µM, first compound 0.000949 µM): 9.1% | viability, T/C (second compound 10 µM, first compound 0.003 µM): 8.15% | viability, T/C (second compound 10 µM, first compound 0.00949 µM): 8.73% | viability, T/C (second compound 10 µM, first compound 0.03 µM): 8.94% | viability, T/C (second compound 10 µM, first compound 0.0949 µM): 9.91% | viability, T/C (second compound 10 µM, first compound 0.3 µM): 8.26%

Reference: PubChem BioAssay AID2060889 (Molecular Pharmacology Branch, DTP, NCI, 2025)
